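Grown in 96-well plates, cells were treated for 48 hours with each compound at five concentrations. Insufficient inhibition: endpoint recorded as highest concentration tested. At the GI50, growth is halved.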 The source made the active and inactive calls. No stated cut-off is given here; in the data, active = GI50 up to about 1.1 µM and inactive = higher.

Test systems include OVCAR-4; OVCAR-5; COLO 205; MCF7; RPMI-8226; UACC-62; A549; SF-295; SF-268; HL-60; CAKI-1; ACHN; NCI-H23; MDA-MB-231; SK-MEL-28; SR; HCC 2998; SK-MEL-2; RXF 393; K562.
Common to all, as to test: inhibition of tumour cell growth, NCI panel, 48 h

With `Clc1c2nc3ccccc3c-2[nH]c2ccccc12`, the GI50 in the experiment with OVCAR-4 was > 100 µM (inactive); in the experiment with OVCAR-5 it was > 100 µM (inactive); with COLO 205 it was 2.86 µM (inactive); in the experiment on MCF7 it was 6.28 µM (inactive); with RPMI-8226 it was 7.96 µM (inactive); in the experiment on UACC-62 it was 48.8 µM (inactive). Moreover, the GI50 in the experiment with A549 is 34 µM (inactive); in the experiment with SF-295 it was < 0.01 µM (active); with SF-268, 64.3 µM (inactive); with HL-60 it was 15.6 µM (inactive); in the experiment on CAKI-1 it was 9.16 µM (inactive); with ACHN, 21.3 µM (inactive). The GI50 in the experiment on NCI-H23 was 11.6 µM (inactive); in the experiment on MDA-MB-231 it was 11.7 µM (inactive); in the experiment on SK-MEL-28 it was 52.4 µM (inactive); in the experiment with SR it was 4.37 µM (inactive); in the experiment with HCC 2998 it was 24.5 µM (inactive); with SK-MEL-2, > 100 µM (inactive).

Regarding `COC(=O)c1c(C)c2c(c(C)c1O)OC(=O)c1c(C)cc(O)c(C=O)c1O2`, the GI50 in the experiment on OVCAR-4, in the experiment with OVCAR-5, in the experiment with COLO 205, in the experiment on MCF7, with RPMI-8226 and with RXF 393 was > 100 µM (inactive) in each case. Further, the GI50 in the experiment on UACC-62 is 45.3 µM (inactive); in the experiment with A549, > 100 µM (inactive); with SF-295, > 100 µM (inactive); in the experiment on SF-268, > 100 µM (inactive); in the experiment with HL-60, > 100 µM (inactive); in the experiment with ACHN it was > 100 µM (inactive). Besides, the GI50 in the experiment with NCI-H23, in the experiment with MDA-MB-231, in the experiment on SK-MEL-28, with SR, in the experiment with K562 and in the experiment on HCC 2998 was > 100 µM (inactive) throughout.

Consider `CN1CCN(C2CC(=O)c3c(Cl)sc(Cl)c32)CC1` (centres undefined), for which the GI50 in the experiment on OVCAR-4 was 14.6 µM (inactive); in the experiment on OVCAR-5, 27.7 µM (inactive); in the experiment on COLO 205 it was 20.7 µM (inactive); with MCF7 it was 4.99 µM (inactive); in the experiment with RPMI-8226, 4.36 µM (inactive); with UACC-62 it was 16.3 µM (inactive). The GI50 with A549 was 21.3 µM (inactive); with SF-295, 21.4 µM (inactive); with SF-268, 8.85 µM (inactive); with HL-60, 19.9 µM (inactive); in the experiment on CAKI-1 it was 21.8 µM (inactive); in the experiment with ACHN, 18.5 µM (inactive). For the same molecule, the GI50 was 9.12 µM (inactive) in the experiment on NCI-H23; 20 µM (inactive) in the experiment with MDA-MB-231; 7.57 µM (inactive) with SK-MEL-28; 4 µM (inactive) in the experiment with SR; 4.06 µM (inactive) in the experiment on K562; 8.87 µM (inactive) with HCC 2998. The GI50 in the experiment with SK-MEL-2 was 19.1 µM (inactive).

On to `O=C1C=CC(=O)c2c1ccc1c3ccccc3n(Cc3ccc([N+](=O)[O-])cc3)c21`, for which the GI50 was > 100 µM (inactive) with OVCAR-4; > 100 µM (inactive) in the experiment with COLO 205; > 100 µM (inactive) in the experiment on MCF7; > 10 µM (inactive) in the experiment with RPMI-8226; > 100 µM (inactive) with RXF 393; > 100 µM (inactive) with UACC-62. Further, the GI50 in the experiment on A549 is > 100 µM (inactive); in the experiment with SF-295 it was > 100 µM (inactive); with SF-268 it was > 100 µM (inactive); with HL-60, 14 µM (inactive); in the experiment with CAKI-1, > 100 µM (inactive); in the experiment with ACHN, > 100 µM (inactive). In addition, the GI50 is > 100 µM (inactive) in the experiment with NCI-H23; > 100 µM (inactive) in the experiment on MDA-MB-231; > 100 µM (inactive) in the experiment with SK-MEL-28; 13.8 µM (inactive) in the experiment on SR; 19.7 µM (inactive) with K562; > 100 µM (inactive) with HCC 2998.

Regarding `Cc1ccc(Cc2n[nH]c(=O)n2Nc2ccccc2)cc1`, the GI50 in the experiment with OVCAR-4, in the experiment with OVCAR-5, in the experiment with COLO 205, in the experiment on MCF7, in the experiment on RPMI-8226 and in the experiment with UACC-62 was > 100 µM (inactive) each time. The GI50 in the experiment with A549, in the experiment with SF-295, in the experiment with SF-268, in the experiment with HL-60, with CAKI-1 and with ACHN was > 100 µM (inactive) each time. The GI50 in the experiment on NCI-H23 was > 100 µM (inactive); with MDA-MB-231, > 100 µM (inactive); in the experiment with SK-MEL-28, 92.3 µM (inactive); in the experiment on SR it was > 100 µM (inactive); with K562, > 100 µM (inactive); with HCC 2998, > 100 µM (inactive). In addition, in the experiment on SK-MEL-2, the GI50 was > 100 µM (inactive).

In the case of `CC(=O)Oc1ccc2cc(Oc3ccccc3)c(=O)oc2c1`, the GI50 was 76.9 µM (inactive) with OVCAR-4; > 100 µM (inactive) with OVCAR-5; > 100 µM (inactive) in the experiment with MCF7; > 100 µM (inactive) in the experiment on RPMI-8226; > 100 µM (inactive) in the experiment with RXF 393; 48.2 µM (inactive) in the experiment with A549. The GI50 with SF-295, in the experiment with SF-268, in the experiment on HL-60, in the experiment on CAKI-1, in the experiment with ACHN and in the experiment with NCI-H23 was > 100 µM (inactive) each time. Moreover, the GI50 with MDA-MB-231, in the experiment with SK-MEL-28, in the experiment on SR and in the experiment on HCC 2998 was > 100 µM (inactive) each time.

Turning to `COc1c(-c2ccc(O)c(O)c2)oc2c(O)c(O)cc(O)c2c1=O`, the GI50 in the experiment with OVCAR-4 is 50.6 µM (inactive); in the experiment with OVCAR-5 it was > 100 µM (inactive); in the experiment on COLO 205, > 100 µM (inactive); with MCF7, 28.2 µM (inactive); with RPMI-8226 it was 31.8 µM (inactive); with UACC-62, 51.1 µM (inactive). Besides, the GI50 in the experiment on A549 was 69.2 µM (inactive); in the experiment on SF-295, 39.1 µM (inactive); with HL-60 it was > 10 µM (inactive); with CAKI-1, 64.6 µM (inactive); in the experiment with ACHN it was > 100 µM (inactive); in the experiment on NCI-H23, 60.3 µM (inactive). Also, the GI50 in the experiment on MDA-MB-231 is > 100 µM (inactive); with SK-MEL-28, > 100 µM (inactive); with SR it was 22 µM (inactive); in the experiment on K562, 20.8 µM (inactive); with HCC 2998, > 100 µM (inactive); in the experiment on SK-MEL-2 it was > 100 µM (inactive).

Consider `CN(CCNC(=O)c1n[nH]c2c1Cc1ccccc1-2)CCNC(=O)c1n[nH]c2c1Cc1ccccc1-2`, for which the GI50 in the experiment on OVCAR-4 was 15.9 µM (inactive); with OVCAR-5, 18.6 µM (inactive); in the experiment on COLO 205, 17.3 µM (inactive); with MCF7 it was 19.3 µM (inactive); in the experiment with RXF 393 it was 15.3 µM (inactive); in the experiment on UACC-62, 19 µM (inactive). The GI50 was 20.6 µM (inactive) in the experiment on A549; 16.6 µM (inactive) with SF-295; 19.5 µM (inactive) in the experiment on SF-268; 21.1 µM (inactive) in the experiment with HL-60; 16.7 µM (inactive) in the experiment with CAKI-1; 17.1 µM (inactive) in the experiment with ACHN. Further, the GI50 was 17.2 µM (inactive) in the experiment with NCI-H23; 19 µM (inactive) with MDA-MB-231; 18.3 µM (inactive) with SK-MEL-28; 19.5 µM (inactive) in the experiment on SR; 18 µM (inactive) with K562; 15.4 µM (inactive) with HCC 2998.

In the case of `C1=C[C@]2(CCC13OCCO3)COc1ccccc12`, the GI50 was 47 µM (inactive) with OVCAR-4; 30.9 µM (inactive) in the experiment on OVCAR-5; 88.7 µM (inactive) in the experiment on COLO 205; 33.3 µM (inactive) in the experiment with MCF7; 25.5 µM (inactive) in the experiment with RPMI-8226; 23.9 µM (inactive) in the experiment on UACC-62. For the same molecule, the GI50 was > 100 µM (inactive) in the experiment with A549; 43.1 µM (inactive) with SF-295; 6.81 µM (inactive) in the experiment on HL-60; > 100 µM (inactive) in the experiment on CAKI-1; 36.6 µM (inactive) in the experiment on ACHN; 26.5 µM (inactive) with NCI-H23. Further, the GI50 in the experiment with MDA-MB-231 was 75.9 µM (inactive); in the experiment with SK-MEL-28, 49.3 µM (inactive); with SR it was 29.9 µM (inactive); in the experiment with K562, 11.9 µM (inactive); with HCC 2998, 43.6 µM (inactive); with SK-MEL-2, 34.7 µM (inactive).

Consider `O=C(O)CCC(NC(=O)c1ccc(Nc2nc3ccccc3nc2C(=O)O)cc1)C(=O)O` (centres undefined), for which the GI50 in the experiment with OVCAR-4, in the experiment on OVCAR-5, in the experiment with COLO 205, in the experiment on MCF7, with RPMI-8226 and in the experiment on UACC-62 was > 100 µM (inactive) throughout. Also, the GI50 with A549, with SF-295, with SF-268, in the experiment on HL-60, with CAKI-1 and in the experiment on ACHN was > 100 µM (inactive) throughout. Moreover, the GI50 in the experiment on NCI-H23, in the experiment with MDA-MB-231, in the experiment on SK-MEL-28, with SR, with K562 and in the experiment on HCC 2998 was > 100 µM (inactive) each time. Further, the GI50 with SK-MEL-2 was > 100 µM (inactive).

Regarding `CC(C)C1=CC23CCC4C(C)(C(=O)O)CCCC4(C)C2CC1C1C(=O)N(c2cccc(N4C(=O)C5C6CC7C8(C)CCCC(C)(C(=O)O)C8CCC7(C=C6C(C)C)C5C4=O)c2)C(=O)C13` (centres undefined), the GI50 in the experiment with OVCAR-4 was 24 µM (inactive); in the experiment on OVCAR-5, 7.74 µM (inactive); with COLO 205 it was 10.6 µM (inactive); with MCF7, 4.38 µM (inactive); with RPMI-8226, 9.35 µM (inactive); in the experiment on RXF 393 it was 12.6 µM (inactive). Also, the GI50 in the experiment with UACC-62 was 16.5 µM (inactive); in the experiment on A549, 14.7 µM (inactive); in the experiment on SF-268, 12 µM (inactive); in the experiment on HL-60, 9.79 µM (inactive); in the experiment with ACHN it was 13.4 µM (inactive); with NCI-H23 it was 3.4 µM (inactive). Further, the GI50 in the experiment with MDA-MB-231 is 14.8 µM (inactive); in the experiment on SK-MEL-28 it was 9.35 µM (inactive); in the experiment with SR it was 9.55 µM (inactive); in the experiment on K562, 7.87 µM (inactive); in the experiment with HCC 2998 it was 6.81 µM (inactive); in the experiment with SK-MEL-2, 15.7 µM (inactive).

Values taken from ChEMBL document CHEMBL1201862, “PubChem BioAssay data set” (2004).
